Measurements taken from patent publication US20040014807A1, “Phenalenone derivatives, processes for preparation and use thereof” (priority 2002, published 2004).

Key:
[1] = reaction with atmospheric oxygen (antioxidant action); assay type: physicochemical; conditions: in solution and in solid form
Description: The compounds of the formula (I) can also be used as antioxidants. Antioxidants (oxidation inhibitors) are organic compounds which inhibit or prevent undesired changes in the substances to be protected caused by the effects of oxygen. Antioxidants are needed, for example, in plastics for protection against ageing, in fats for protection against rancidity, in oils against resinification, in aromatic substances against odor impairment, in foodstuffs, and in pharmaceuticals. The action of the antioxidants usually consists in acting as radical scavengers for the free radicals occurring in the oxidation. The antioxidative action of atrovenetin (compound of the formula (III)) has already been described by Y. Ishikawa et al. (J. Am. Oil Chem. Soc. 68, 666-668, 1991). Microbial antioxidants, however, are often too weak or not highly tolerable in their action. There is therefore a great need for novel, efficacious and tolerable antioxidants. […] This increased affinity of penilenone for oxygen, however, is decidedly advantageous for very oxidation-sensitive substances.

Streptomyces murinus = assay: agar diffusion test (antibiogram on solid nutrient plates with antibiotic diffusion); assay type: cell-based; conditions: agar plate containing Streptomyces murinus culture
Method: Moreover to be emphasized is an antimicrobial inhibitory action of the compounds of formula (I) according to the invention on bacteria, such as, for example, Staphylococcus aureus, Streptomyces murinus and against fungi, such as Aspergillus niger, which can cause stubborn, life-threatening infectious diseases. […] Thus, penilenone on an agar plate containing Streptomyces murinus culture in a solution of 1 mg per mL causes an inhibition halo of 11 mm and in a solution of 0.1 mg per mL an inhibition halo of 8 mm. The compounds of the formula (I) according to the invention are therefore likewise suitable for the treatment and/or prophylaxis of bacterial infections and/or fungal diseases (micosis or mycoses).

[2] = solubility (physicochemical properties)
Description: (§1) The melting point is not determinable because of decomposition. Stable in mildly acidic medium under reducing conditions. Under the influence of oxygen, penilenone turns green in neutral medium or in the presence of amines.

[3] = stability (physicochemical properties)
Description: as §1

| Compound | reaction with atmospheric oxygen [1] | inhibition halo (Streptomyces murinus; solution of 0.1 mg per mL) [mm] | inhibition halo (Streptomyces murinus; solution of 1 mg per mL) [mm] | solubility in organic solvents ([2]; medium polar and polar organic solvents) | solubility in water ([2]; water) | stability ([3]; mildly acidic medium under reducing conditions) | behaviour under the influence of oxygen ([3]; neutral medium or in the presence of amines) |
| --- | --- | --- | --- | --- | --- | --- | --- |
| Cc1cc(O)c2c3c(c(O)c4c(c13)OC(C)C4(C)C)C(O)=C(O)C2=O (centres unmarked) [atrovenetin, reference compound] | reacts only slowly with atmospheric oxygen | – | – | – | – | – | – |
| Cc1cc(O)c2c3c(c(O)cc(O)c13)C(O)=C(O)C2=O [penilenone] | combines with oxygen within seconds or in a few minutes | 8 | 11 | soluble in medium polar and polar organic solvents | not very soluble in water | Stable | turns green |
